Experimental data taken from patent publication US8178534B2, “cMET inhibitors” (Takeda Pharmaceutical Company Limited, priority 2008, dated 2012).
Counter-ions that a name gives are not always drawn.

What was measured:
EBC1 = experiment: Inhibition of cell viability (MTS), EBC1; type: cell-based; details: EBC1 cells, 96 hours incubation
Method in brief: (§1)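 Cells seeded at 2,000-7,500/well, attached ~24 h, then treated in duplicate with 1:2.5 serial dilutions at 0.5% final DMSO. Viability by MTS; EC50 from non-linear fit after background correction and normalisation to DMSO. MKN45 and EBC1 are cMET-dependent; A549 serves as negative control.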

A549 = experiment: Inhibition of cell viability (MTS), A549 (negative control line); type: cell-based; details: A549 cells (negative control), 96 hours incubation
Method in brief: as §1

[1] = target: T1, cMET enzyme (amino acids 1023-1360) (Homo sapiens, UniProt P08581); experiment: Determination of inhibition of cMET (capillary electrophoresis, phosphorylated peptide product); type: biochemical; details: 1.2 nM cMET, 50 μM ATP, 2 μM FL-2 peptide, 2 hours room temperature
T1 construct: The cMET enzyme (amino acids 1023-1360) nominally at 24 μM was held at −80° C. until use; His tag (N, cleaved yes); made in house; host or cells: Sf9 cells
T1 sequence (P08581 1023-1360): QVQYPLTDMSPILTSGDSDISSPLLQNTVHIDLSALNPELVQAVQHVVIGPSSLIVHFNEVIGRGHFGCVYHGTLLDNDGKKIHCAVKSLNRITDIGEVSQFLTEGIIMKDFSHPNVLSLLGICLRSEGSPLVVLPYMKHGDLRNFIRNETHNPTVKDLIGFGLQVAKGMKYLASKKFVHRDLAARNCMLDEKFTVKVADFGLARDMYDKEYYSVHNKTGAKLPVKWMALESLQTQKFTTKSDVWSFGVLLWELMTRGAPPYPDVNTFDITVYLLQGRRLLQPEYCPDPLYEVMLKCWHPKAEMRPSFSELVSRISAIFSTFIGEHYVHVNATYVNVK

MKN45 = experiment: Inhibition of cell viability (MTS), MKN45; type: cell-based; details: MKN45 cells, 96 hours incubation
Method in brief: as §1

| SMILES | melting point [°C] | EC50 (EBC1) [nM] | EC50 (A549) [nM] | IC50 [1] [nM] | EC50 (MKN45) [nM] | EC50 (EBC1; Homo sapiens, EBC-1, 96 h) [nM] | EC50 (A549; Homo sapiens, A549, 96 h) [nM] | EC50 (MKN45; Homo sapiens, MKN-45, 96 h) [nM] |
| --- | --- | --- | --- | --- | --- | --- | --- | --- |
| O=C(Nc1cn2nc(Sc3nnc4ccc(-c5cnn(CCO)c5)cn34)ccc2n1)C1CC1 (as salt: HCl) [Compound 32] | 182 to 184 |  |  |  |  |  |  |  |
| Cn1cc(-c2ccc3nnn(Cc4ccc5nc(NC(=O)C6CC6)cn5n4)c3c2)cn1 [13 (free base), N-(6-((6-(1-methyl-1H-pyrazol-4-yl)-1H-benzo[d][1,2,3]triazol-1-yl)methyl)imidazo[1,2-b]pyridazin-2-yl)cyclopropanecarboxamide] | 250.2 to 251.6 | < 30 | > 50000 | 30 to 59 | < 30 |  |  |  |
| O=C(Nc1cn2nc(Sc3nnc4ccc(-c5cccc(CCCO)c5)cn34)ccc2n1)C1CC1 [Compound 111, N-(6-(6-(3-(3-hydroxypropyl)phenyl)-[1,2,4]triazolo[4,3-a]pyridin-3-ylthio)imidazo[1,2-b]pyridazin-2-yl)cyclopropanecarboxamide] |  |  |  | < 30 |  | 30 to 59 | 8000 to 25000 | 100 to 249 |
| Nc1cn2nc(Sc3nnc4ccccn34)ccc2n1 [Compound 114, 6-([1,2,4]triazolo[4,3-a]pyridin-3-ylthio)imidazo[1,2-b]pyridazin-2-amine] |  |  |  | > 630 |  | > 630 | > 50000 | > 630 |
